These molecules were tested on TDP-43 aggregation (assay: TDP-43 aggregation assay in SY5Y TDP-43WT cells (high content imaging)). Settings: Homo sapiens, tetracycline induction 24 hrs, 1 hour compound pre-treatment, sodium arsenite 23 hrs, 8-point dose curve, percentage of cells with TDP-43 aggregates, read-out: IC50, Inhibition of TDP-43 Aggregation.
Assay type: cell-based
Experimental: Exemplary compounds disclosed herein were evaluated for efficacy in inhibiting TDP-43 inclusions cellular imaging-based assays.
The cellular model was in human neuroblastoma SH SYSY cells (ATCC, cat #: CRL-2266). The parent cell line was first engineered to stably express a tetracycline repressor protein (designated as TREx-SY5Y cells, customer cell line development by ThermoFisher). Wild-type human TDP-43 with a C-terminus eGFP tag was synthesized and cloned into pcDNA5/TO expression vector (ThermoFisher). The plasmid was transfected into TREx-SY5Y cells using Lipofectamine 2000 and hygromycin resistant colonies were selected. Expression of TDP-43WT::eGFP was examined under fluorescent microscopy and Western blot upon tetracycline induction. The clone that was used for TDP-43 aggregation assay is referred to as SY5Y TDP-43WT cells hereafter.
Compound inhibition of TDP-43 aggregation was tested in an 8-point dose curve in 96-well format. Briefly, TDP-43WT::eGFP expression was induced with […] for 24 hrs (SY5Y TDP-43WT cells). The cells were then pre-treated for 1 hour with exemplary compounds before adding sodium arsenite to a final concentration of […] and incubated for another 23 hrs. At the end of the treatment the cell monolayers were washed in PBS and fixed in 4% paraformaldehyde (PFA), diluted from 16% stock (Electron Microscopy Sciences cat: #15710-S). The inhibitory effect on TDP-43 aggregation was measured using CellInsight CX7 high content imager (ThermoFisher). The percentage of cells with TDP-43 aggregates was calculated based on the total number of cells identified by DAPI staining. An 8-point dose response curve was generated, and the IC50 for each compound tested was determined (Table 3).
In Table 3 below, A indicates an IC50 (nM)<500 nM, B indicates an IC50 (nM) 500 nM to <1000 nM, C indicates an IC50 (nM) 1000 nM to <2000 nM, D indicates an IC50 (nM) 2000 nM to <6000 nM, and E indicates an IC50 (nM) 6000 nM to ≤10000 nM.

| SMILES | IC50 |
| --- | --- |
| Cc1cc(-c2ccc(C3CCN(C4COC4)CC3)c(F)c2)sc1C(=O)N1CC[C@H](N)C1 [Compound 264, (S)-(3-aminopyrrolidin-1-yl)(5-(3-fluoro-4-(1-(oxetan-3-yl)piperidin-4-yl)phenyl)-3-methylthiophen-2-yl)methanone] | < 0.5 µM |
| C#CCOCCOCCN1CCC(c2ccc(-c3cc(C)c(C(=O)N4CC[C@H](N)C4)s3)cc2)CC1 [Compound 290, (S)-(3-aminopyrrolidin-1-yl)(3-methyl-5-(4-(1-(2-(2-(prop-2-yn-1-yloxy)ethoxy)ethyl)piperidin-4-yl)phenyl)thiophen-2-yl)methanone] | < 0.5 µM |
| CCN1CCC(c2ccc(-c3cc(Cl)c(C(=O)N4CC[C@H](N)C4)s3)cc2F)CC1 [Compound 266, (S)-(3-aminopyrrolidin-1-yl)(3-chloro-5-(4-(1-ethylpiperidin-4-yl)-3-fluorophenyl)thiophen-2-yl)methanone] | < 0.5 µM |
| N[C@H]1CCN(C(=O)c2sc(-c3ccc(C4CCN(C5CCC5)CC4)c(F)c3)cc2Cl)C1 [Compound 271, (S)-(3-aminopyrrolidin-1-yl)(3-chloro-5-(4-(1-cyclobutylpiperidin-4-yl)-3-fluorophenyl)thiophen-2-yl)methanone] | < 0.5 µM |
| Cc1cc(-c2ccc(C(C)(C)N(C)C)cc2)sc1C(=O)N1CC[C@H](N)C1 [Compound 190, (S)-(3-aminopyrrolidin-1-yl)(5-(4-(2-(dimethylamino)propan-2-yl)phenyl)-3-methylthiophen-2-yl)methanone] | < 0.5 µM |
| COc1cc(-c2cc(C)c(C(=O)N3CC[C@H](N)C3)s2)ccc1C1CCN(C2CCOCC2)CC1 [Compound 260, (S)-(3-aminopyrrolidin-1-yl)(5-(3-methoxy-4-(1-(tetrahydro-2H-pyran-4-yl)piperidin-4-yl)phenyl)-3-methylthiophen-2-yl)methanone] | 1 to 2 µM |
| Cc1cc(-c2ccc3c(c2)CCCO3)sc1C(=O)N1CC[C@H](N)C1 [Compound 229] | 0.5 to 1 µM |
| COC(C)(C)CN1CCC(c2ccc(-c3cc(Cl)c(C(=O)N4CC[C@H](N)C4)s3)cc2F)CC1 [Compound 249, (S)-(3-aminopyrrolidin-1-yl)(3-chloro-5-(3-fluoro-4-(1-(2-methoxy-2-methylpropyl)piperidin-4-yl)phenyl)thiophen-2-yl)methanone] | < 0.5 µM |
| CC(C)(O)CN1CCC(c2ccc(-c3cc(Cl)c(C(=O)N4CC[C@H](N)C4)s3)cc2F)CC1 [Compound 256, (S)-(3-aminopyrrolidin-1-yl)(3-chloro-5-(3-fluoro-4-(1-(2-hydroxy-2-methylpropyl)piperidin-4-yl)phenyl)thiophen-2-yl)methanone] | < 0.5 µM |
| Cc1cnc(-c2cc(C)c(C(=O)N3CC[C@H](N)C3)s2)cn1 [Compound 223] | 1 to 2 µM |
| Cc1cc(-c2ccc(C3CCN(C(C)C)CC3)c(F)c2)sc1C(=O)N1CC[C@H](N)C1 [Compound 282, (S)-(3-aminopyrrolidin-1-yl)(5-(3-fluoro-4-(1-isopropylpiperidin-4-yl)phenyl)-3-methylthiophen-2-yl)methanone] | < 0.5 µM |
| N[C@H]1CCN(C(=O)c2sc(-c3ccc(C4CCN(C5CCOCC5)CC4)cc3)cc2Br)C1 [Compound 255, (S)-(3-aminopyrrolidin-1-yl)(3-bromo-5-(4-(1-(tetrahydro-2H-pyran-4-yl)piperidin-4-yl)phenyl)thiophen-2-yl)methanone] | < 0.5 µM |
| Cc1cc(-c2ccc(C3CCN(C4CCCC4)CC3)c(F)c2)sc1C(=O)N1CC[C@H](N)C1 [Compound 278, (S)-(3-aminopyrrolidin-1-yl)(5-(4-(1-cyclopentylpiperidin-4-yl)-3-fluorophenyl)-3-methylthiophen-2-yl)methanone] | < 0.5 µM |
| Cc1cc(-c2ccc(C3COC3)cc2)sc1C(=O)N1CC[C@H](N)C1 [Compound 235] | < 0.5 µM |
| Cc1cc(-c2ccc3c(c2)CCCC3)sc1C(=O)N1CC[C@H](N)C1 [Compound 247] | 6 to 10 µM |
| COCCN1CCC(c2ccc(-c3cc(C)c(C(=O)N4CC[C@H](N)C4)s3)cc2F)CC1 [Compound 276, (S)-(3-aminopyrrolidin-1-yl)(5-(3-fluoro-4-(1-(2-methoxyethyl)piperidin-4-yl)phenyl)-3-methylthiophen-2-yl)methanone] | < 0.5 µM |

Further lines, results first:

| IC50 | SMILES |
| --- | --- |
| 0.5 to 1 µM | Cc1cc(-c2ccc(C3CCN(C4CCNCC4)CC3)cc2)sc1C(=O)N1CC[C@H](N)C1 [Compound 177, (S)-(5-(4-([1,4′-bipiperidin]-4-yl)phenyl)-3-methylthiophen-2-yl)(3-aminopyrrolidin-1-yl)methanone] |
| < 0.5 µM | CCc1cc(-c2ccc(C3CCN(C4CCOCC4)CC3)cc2)sc1C(=O)N1CC[C@H](N)C1 [Compound 289, (S)-(3-aminopyrrolidin-1-yl)(3-ethyl-5-(4-(1-(tetrahydro-2H-pyran-4-yl)piperidin-4-yl)phenyl)thiophen-2-yl)methanone] |
| 0.5 to 1 µM | Cc1cc(-c2ccc3c(c2)OCCC3)sc1C(=O)N1CC[C@H](N)C1 [Compound 194, (S)-(3-aminopyrrolidin-1-yl)(5-(chroman-7-yl)-3-methylthiophen-2-yl)methanone] |
| 0.5 to 1 µM | Cc1cc(-c2ccc(C3CCN(C4CCNC4)CC3)cc2)sc1C(=O)N1CC[C@H](N)C1 (stereo partly drawn) [Compound 171, ((S)-3-aminopyrrolidin-1-yl)(3-methyl-5-(4-(1-(pyrrolidin-3-yl)piperidin-4-yl)phenyl)thiophen-2-yl)methanone] |
| 0.5 to 1 µM | Cc1cc(-c2ccc(N3CCN(C4COC4)CC3)cc2)sc1C(=O)N1CC[C@H](N)C1 [Compound 154, (S)-(3-aminopyrrolidin-1-yl)(3-methyl-5-(4-(4-(oxetan-3-yl)piperazin-1-yl)phenyl)thiophen-2-yl)methanone] |
| 1 to 2 µM | CCCc1cc(-c2ccc(C3CCN(C4CCOCC4)CC3)cc2)sc1C(=O)N1CC[C@H](N)C1 [Compound 285, (S)-(3-aminopyrrolidin-1-yl)(3-propyl-5-(4-(1-(tetrahydro-2H-pyran-4-yl)piperidin-4-yl)phenyl)thiophen-2-yl)methanone] |
| < 0.5 µM | Cc1cc(-c2ccc(C3CCN(C4CC4)CC3)cc2)sc1C(=O)N1CC[C@H](N)C1 [Compound 175, (S)-(3-aminopyrrolidin-1-yl)(5-(4-(1-cyclopropylpiperidin-4-yl)phenyl)-3-methylthiophen-2-yl)methanone] |
| 6 to 10 µM | Cc1cc(-c2ccc(COc3ccccc3)cc2)sc1C(=O)N1CC[C@H](N)C1 [Compound 204, (S)-(3-aminopyrrolidin-1-yl){3-methyl-5-[4-(phenoxymethyl)phenyl]thiophen-2-yl}methanone] |
| 6 to 10 µM | CCc1cc(-c2cc(C)c(C(=O)N3CC[C@H](N)C3)s2)ccc1C1CCOCC1 [Compound 157, (S)-(3-aminopyrrolidin-1-yl)(5-(3-ethyl-4-(tetrahydro-2H-pyran-4-yl)phenyl)-3-methylthiophen-2-yl)methanone] |
| < 0.5 µM | COCCN1CCC(c2ccc(-c3cc(Cl)c(C(=O)N4CC[C@H](N)C4)s3)cc2F)CC1 [Compound 283, (S)-(3-aminopyrrolidin-1-yl)(3-chloro-5-(3-fluoro-4-(1-(2-methoxyethyl)piperidin-4-yl)phenyl)thiophen-2-yl)methanone] |
| 6 to 10 µM | Cc1cc(-c2ccc(C3=CCCCC3)cc2)sc1C(=O)N1CC[C@H](N)C1 [Compound 224] |
| 2 to 6 µM | Cc1cc(-c2ccc3c(c2)CCCC3N(C)C)sc1C(=O)N1CC[C@H](N)C1 (stereo partly drawn) [Compound 186, ((S)-3-aminopyrrolidin-1-yl)(5-(5-(dimethylamino)-5,6,7,8-tetrahydronaphthalen-2-yl)-3-methylthiophen-2-yl)methanone] |
| < 0.5 µM | COC(C)CN1CCC(c2ccc(-c3cc(Cl)c(C(=O)N4CC[C@H](N)C4)s3)cc2F)CC1 (stereo partly drawn) [Compound 250, ((S)-3-aminopyrrolidin-1-yl)(3-chloro-5-(3-fluoro-4-(1-(2-methoxypropyl)piperidin-4-yl)phenyl)thiophen-2-yl)methanone] |
| < 0.5 µM | N[C@H]1CCN(C(=O)c2sc(-c3ccc(C4CCN(C5CCCC5)CC4)c(F)c3)cc2Cl)C1 [Compound 270, (S)-(3-aminopyrrolidin-1-yl)(3-chloro-5-(4-(1-cyclopentylpiperidin-4-yl)-3-fluorophenyl)thiophen-2-yl)methanone] |
| 0.5 to 1 µM | Cc1cc(-c2ccc(C3(N(C)C)CCCC3)cc2)sc1C(=O)N1CC[C@H](N)C1 [Compound 193, (S)-(3-aminopyrrolidin-1-yl){5[4-(1-dimethylaminocyclopentyl)phenyl]-3-methylthiophen-2-yl}methanone] |
| 1 to 2 µM | Cc1cc(-c2ccc(C3CCN(C4CCOCC4)CC3)c(OC(F)(F)F)c2)sc1C(=O)N1CC[C@H](N)C1 [Compound 261, (S)-(3-aminopyrrolidin-1-yl)(3-methyl-5-(4-(1-(tetrahydro-2H-pyran-4-yl)piperidin-4-yl)-3-(trifluoromethoxy)phenyl)thiophen-2-yl)methanone] |

From US20260258025A1, “INHIBITORS OF TDP-43 AND TAU AGGREGATION” (Aquinnah Pharmaceuticals, inc., priority 2023, published 2026)
